Reference: patent publication US20130302247A1, “SYNTHESIS OF FLUOROARACHIDONIC ACID AND METHODS OF USE THEREOF” (The United States of America, as represented by the …, priority 2012, published 2013)

Tests used:
[1] = Incorporation of [19F]FAA into brain lipids of unanesthetized mice (GC/MS, in vivo kinetic infusion model); parameters: species or system C57BL/6J male mice
Procedure: (§1) The plasma and brain kinetics of the purified [^19F]FAA were tested in unanesthetized adult C57BL/6J male mice. The study was conducted following the National Institutes of Health Guidelines for the Care and Use of Laboratory Animals (Publication no. 80-23) and was approved by the Animal Care and Use Committee of the Eunice Kennedy Shriver National Institute of Child Health and Human Development. Male C57BL/6J mice were obtained at the age of 2-3 months. The mice were maintained in an animal facility in which temperature, humidity, and light cycle were regulated with free access to water and a fixed diet (Rodent NIH-07) that contained (as fractional percent of total fatty acids), 30.6% saturated, 22.5% monounsaturated, […], 4.9% α-linolenic, 0.2% AA, 1.6% eicosapentaenoic, and 2.2% docosahexaenoic acid.
At 4-5 months of age, a mouse was anesthetized with […], and polyethylene catheters were inserted into the femoral artery and vein. The mouse was allowed to recover from surgery in an environment maintained at 25° C., with its hindquarters loosely wrapped and taped to a wooden block. During recovery, body temperature was maintained at 37° C. by means of a rectal probe and a heating element (Indicating Temperature Controller; Yellow Springs Instrument). After 3 h of recovery, the unanesthetized mouse was infused intravenously for 5 min with 130 μl HEPES buffer (pH 7.4) containing 50 mg/ml fatty acid-free bovine serum albumin (BSA, Sigma), or 0.1 mg or 0.5 mg 20-fluoroarachidonic acid (20-FAA) dissolved in HEPES-BSA at a rate of 0.0223 (1+e^−0.32t) ml/min (t in seconds), using a computer-controlled variable rate infusion pump (No. 22; Harvard Apparatus). During infusion, timed arterial blood samples (˜20 μl) were collected in polyethylene-heparin lithium fluoride-coated Beckman centrifuge tubes at 0, 0.25, 0.5, 1.0, 1.5, 3.0, and 4.0 min, and 150 μl was collected at 4.9 min. Plasma samples were separated by centrifuging at 13,000 rpm for 1 min, and stored at −80° C. until they were analyzed. At 5 min, the mouse was anesthetized with sodium pentobarbital (50 mg/kg, i.v.) and subjected to head-focused microwave irradiation (5.5 kW, 0.9 s, 75% power output; Cober Electronics) to stop brain fatty acid metabolism (27). The brain was excised, dissected sagittally and stored at −80° C. until analysis.
Total lipids were extracted from plasma (7-10 μl) and from half brain (˜0.2 g) by the method of Folch et al (28). Heptadecanoic acid (17:0) was added as an internal standard to plasma prior to extraction. Total lipid extracts were separated by thin layer chromatography (TLC) on silica gel plates (Silica Gel 60A TLC plates; Whatman) that were pre-washed with chloroform/methanol (2:1 v/v) and activated by heating at 100° C. Neutral lipid subclasses including phospholipids (PLs), unesterified fatty acids (UFAs), triglycerides (TGs) and cholesteryl esters (CEs) were separated using a mixture of heptane:diethyl ether:glacial acetic acid (60:40:3 by volume) (29), and authentic PL, cholesterol, UFA, TG and CE standards were run in separate lanes to identify the bands. Phospholipid classes (EtnGpl, ethanolamine glycerophospholipid; ChoGpl, choline glycerophospholipid; PtdIns, phosphatidylinositol; PtdSer, phosphatidylserine) were separated in chloroform:methanol:H2O:glacial acetic acid (60:50:4:1 by volume) (30) and identified with authentic standards in separate lanes. The plates were sprayed with 0.03% (w/v) 6-p-toluidine-2-naphthalene sulfonic acid (Acros) in 50 mM Tris-HCl buffer (pH 7.4), and the lipid bands were visualized under UV light. Each band was scraped into tubes containing di-17:0 PC for quantifying PL, CE, TG, EtnGpl, ChoGpl, PtdIns and PtdSer lipid fractions, or 17:0 heptadecaenoic acid to quantify brain UFAs. Toluene (0.2 ml) was added to each tube. The UFAs were extracted from the scraped silica using 2:1 chloroform/methanol and 1.5 ml of 0.1 M KCl, dried and derivitized as described below. […]

[2] = Plasma kinetics of FAA during 5-min intravenous infusion in unanesthetized mice; format: in vivo, C57BL/6J male mice; conditions: 5-minute intravenous infusion; for plasma area under the curve: mice
Procedure: as §1
At 4-5 months of age, a mouse was anesthetized with […], and polyethylene catheters were inserted into the femoral artery and vein. The mouse was allowed to recover from surgery in an environment maintained at 25° C., with its hindquarters loosely wrapped and taped to a wooden block. During recovery, body temperature was maintained at 37° C. by means of a rectal probe and a heating element (Indicating Temperature Controller; Yellow Springs Instrument). […] Plasma samples were separated by centrifuging at 13,000 rpm for 1 min, and stored at −80° C. until they were analyzed. […]
Total lipids were extracted from plasma (7-10 μl) and from half brain (˜0.2 g) by the method of Folch et al (28). […] Each band was scraped into tubes containing di-17:0 PC for quantifying PL, CE, TG, EtnGpl, ChoGpl, PtdIns and PtdSer lipid fractions, or 17:0 heptadecaenoic acid to quantify brain UFAs. […]

[3] = mouse, intravenously injected, from ref (2); cited from earlier work
[4] = mouse brain, 5-min i.v. infusion, mean±SD, n=3

O=C(O)CCC/C=C\C/C=C\C/C=C\C/C=C\CCCCCF [FAA, 20-Fluoroarachidonic acid]
FAA concentration within brain phospholipids (rank order) ([1]; both doses, end of 5-min infusion, FIG. 2-A): highest in PtdIns and ChoGpl, followed by EtnGpl and PtdSer
FAA detected in brain unesterified fatty acid, triglyceride and cholesteryl ester fractions ([1]; end of 5-min infusion, mouse brain): < 0.01 nmol/g
incorporation coefficient k*, high versus low dose ([1]; mouse brain lipids, FIG. 3): lower for the high infusion dose than the low dose
k* values, brain ChoGpl [1, 4]: 6.8 ± 2.6 ml/s/g × 10^4
k* values, brain EtnGpl [1, 4]: 2.8 ± 0.4 ml/s/g × 10^4
k* values, brain PtdIns [1, 4]: 8.6 ± 1.3 ml/s/g × 10^4
k* values, brain PtdSer [1, 4]: 0.4 ± 0.1 ml/s/g × 10^4
k* values, brain Total lipid [1, 4]: 15.0 ± 2.3 ml/s/g × 10^4
distribution of FAA in each phospholipid fraction, percentage of FAA in total phospholipid (rank order) ([1]; mouse brain, FIG. 2-B, p<0.01): highest in ChoGlp, followed by PtdIns, EtnGlp and PtdSer
FAA concentration in plasma over time ([2]; 0.3 or 1.6 nmol, FIG. 1): increased over time in a dose-dependent manner
plasma area under the curve ([2]; high dose (1.6 nmol)): 0.236 ± 0.0189 µM·h
plasma area under the curve ([2]; low dose (0.3 nmol)): 0.0297 ± 0.0217 µM·h

CCCCC/C=C\C/C=C\C/C=C\C/C=C\CCCC(=O)O [[1-^14C]AA]
Published k* values, brain ChoGpl [3]: 5.9 ± 1.4 ml/s/g × 10^4
Published k* values, brain EtnGpl [3]: 5.7 ± 1.0 ml/s/g × 10^4
Published k* values, brain PtdIns [3]: 6.8 ± 0.8 ml/s/g × 10^4
Published k* values, brain PtdSer [3]: 1.8 ± 0.5 ml/s/g × 10^4
Published k* values, brain Total lipid [3]: 22.6 ± 1.3 ml/s/g × 10^4
